Each structure is given as a SMILES string.

These results are taken from PMC4830539, “Chemical Inhibition of Histone Deacetylases 1 and 2 Induces Fetal Hemoglobin through Activation of GATA2” (PLoS ONE, 2016).

One experiment has as its system HbF. On the set-up: method as in PMID 16888791, PMID 12393499, PMID 25808664, PMID 24606390, PMID 16939493. The following applies: cell lines and primary cells; cited from earlier work.
The subject of a further experiment is HbF protein. Description: HbF protein by flow cytometry in BM cells (CS1, CS2). The following applies: 1 μM ACY-957 or 30 μM hydroxyurea. It is filed as cell-based, human. As for the experimental part:
CD34+ cells isolated from human bone marrow of healthy normal donors (Lonza, AllCells, or StemCell Technologies), referred to as BM cells throughout this work, were cultured using two distinct 2-phase culture systems. These systems have been described previously and are referred to as Culture System 1 (CS1) and Culture System 2 (CS2) throughout this work. CS1 expansion media is StemSpan SFEM (StemCell Technologies) supplemented with CC100 (StemCell Technologies), 100 U/mL penicillin and 100 μg/mL streptomycin. CC100 is a mix of Flt-3 ligand (FLT3LG), KIT ligand (KITLG), interleukin-3 (IL3), and interleukin-6 (IL6). CS1 differentiation media is StemSpan SFEM supplemented with 1 U/ml erythropoietin (EPO), 5 ng/mL IL3, 20 ng/mL KITLG, 2 μM dexamethasone, 1 μM beta-estradiol, 100 U/mL penicillin and 100 μg/mL streptomycin. CS2 expansion media is StemSpan SFEM supplemented with 1% glutamine, 40 μg/mL lipids (Sigma), 100 ng/mL KITLG, 10 ng/mL IL3, and 0.5 U/mL EPO. CS2 differentiation media is same as CS2 expansion media, except 3 U/mL EPO.
Flow cytometry was performed on a FC500 flow cytometer ([…]). Fetal hemoglobin protein was assayed using the Fetal Hemoglobin Test Kit (Life Technologies) according to manufacturer’s protocol. Samples were stained with FITC-conjugated mouse IgG1 anti-human HbF antibody (clone HbF-1, Life Technologies). Each sample was also stained with a FITC-conjugated mouse IgG1 isotype control antibody (clone X40, BD Biosciences) and used as a negative control. FETALtrol cells were used as positive controls (Trillium Diagnostics). TFRC and GYPA were detected on fresh cells by staining with 20 μL of PE-conjugated anti-human TFRC (clone M-A712, catalog 555537, BD Biosciences) and 0.5 μL of FITC- or APC-conjugated anti-human GYPA (clone GA-R2 (HIR2), catalog 559943 or 551336, BD Biosciences) in 200 μL PBS with 0.1% BSA for 40 min on ice. Forward and side scatter, or staining with 7AAD (catalog 559925, BD Biosciences), was used to identify viable cells.
To determine if the HBG mRNA induction observed in the presence of ACY-957 was associated with an increase in the HbF protein, CS1 and CS2 cells at day 5 were stained with a fluorescently conjugated anti-HbF antibody and evaluated by flow cytometry. HbF positive cells were increased by 2 to 3-fold upon treatment with ACY-957, which exceeded the response observed with hydroxyurea (Fig 2B and 2E).
For orientation: In flow cytometry, cells or beads pass a laser one at a time.

For a further experiment, the system named is erythroid progenitors. Also on record: method as in PMID 16939493. Conditions: by suppressing the EPO-mediated survival of CD36highGYPAhigh cells; cited from earlier work.

As to `Nc1ccccc1NC(=O)c1ccc(CNC(=O)OCc2cccnc2)cc1` [MS-275], the HbF induction entry in the experiment on HbF is recorded as “induce HbF”. Take `CCN(CC)Cc1ccc2cc(COC(=O)Nc3ccc(C(=O)NO)cc3)ccc2c1` [givinostat]: the HbF induction entry in the experiment with HbF is given as “induce HbF”. Turning to `NC(=O)NO` [hydroxyurea, reference compound], in the experiment with HbF protein (CS1, day 5), the HbF positive cells is reported as 20% and the “MFI of HbF positive cells” value worked out at 52. In the experiment on HbF protein (CS2, day 5), the HbF positive cells is recorded as 39% and the “MFI of HbF positive cells” value is reported as 12. As to `C/C=C1\NC(=O)[C@H]2CSSCC/C=C/[C@H](CC(=O)N[C@H](C(C)C)C(=O)N2)OC(=O)[C@H](C(C)C)NC1=O` [romidepsin], in the experiment on HbF, the HbF induction result was “induce HbF”. Also, the “effect on erythroid progenitors” value in the experiment with erythroid progenitors was “accumulation CD36^highGYPA^mid erythroid progenitors”. As to `CC(/C=C/C(=O)NO)=C\[C@@H](C)C(=O)c1ccc(N(C)C)cc1` [trichostatinA], the “effect on erythroid progenitors” value in the experiment with erythroid progenitors is recorded as “accumulation CD36^highGYPA^mid erythroid progenitors”. `O=C(CCCCCCC(=O)Nc1ccccc1)NO` [vorinostat]: the HbF induction entry with HbF was “induce HbF”.
